Entries after “also recorded” stand apart in the source; their conditions may differ.
Columns and labels:
[1] = tested on: R6/2 transgenic mouse model of HD; assay: Neuropathological evaluation (brain weight, gross atrophy, striatal neuron area) at 90 days; format: in vivo
Method: Neuropathological Evaluation of Sodium Butyrate Treatment: Beginning at 21 days, R6/2 transgenic mice and wild-type littermate control mice were treated daily with the most optimal dose of sodium butyrate (1.2 g/kg), as determined by survival studies, or PBS intraperitoneal injections. Groups of 10 animals from each treatment paradigm were deeply anesthetized and transcardially perfused with 4% buffered paraformaldehyde at 90 days of age. Forty mice were used for neuropathological analysis, as previously described (Ferrante et al., 2002). Serially cut tissue sections were stained for Nissl substance and immunostained for huntingtin (monoclonal huntingtin antibody, 1:1,000 dilution, Chemicon International Inc.) and for acetylated histone 3 and histone 4 (dilution, 1:1,000, Upstate Biotechnology, Lake Placid, N.Y.), using a previously reported conjugated secondary antibody method in murine brain tissue samples (Ferrante et al., 2002). Specificity for the antisera used in this study was examined in each immunochemical experiment to assist with the interpretation of the results. Preabsorption with excess target proteins, omission of the primary antibodies, and omission of secondary antibodies were performed to determine the amount of background generated from the detection assay.
Stereology/Quantitation: Serial-cut coronal tissue-sections beginning from the most rostral segment of the neostriatum to the level of the anterior commissure (Inter aural 5.34 mm/Bregma 1.54 mm to Inter aural 3.7 mm/Bregma −0.10 mm), were used for huntingtin aggregate analysis. Unbiased stereological counts of huntingtin-positive aggregates ([…]) were obtained from the neostriatum in 10 mice each from sodium butyrate-treated (1.2 g/kg) and PBS-treated R6/2 mice at 90 days using Neurolucida Stereo Investigator software (Microbrightfield, Colchester, Vt.). The total areas of the rostral neostriatum were defined in serial sections in which counting frames were randomly sampled. The optical dissector method was employed estimating the number of huntingtin-positive aggregates. Striatal neuron areas were analyzed by microscopic videocapture using a Windows-based image analysis system for area measurement (Optimas, Bioscan Incorporated, Edmonds, Wash.). The software automatically identifies and measures profiles. All computer identified cell profiles were manually verified as neurons and exported to Microsoft Excel. Cross-sectional areas were analyzed using Statview.

Body weight in R6/2 mice = format: in vivo, mouse; details: same plateau in PBS-treated mice
Method: Intraperitoneal Dosing: Based upon previous studies (Egorin et al., 1999), a dose response study was performed, treating groups of wild type mice (n=10) and littermate R6/2 mice (n=20) with 100, 200, 400, 600, 1,200, 5,000, and 10,000 mg/kg daily intraperitoneal injection (100 Êl) of sodium butyrate (Acros Organics/Fisher Scientific) dissolved in PBS and made fresh daily. Control groups were treated with PBS injection or untreated. Approximately 240 mice were used for behavioral and survival analyses.
Clinical Assessment: Both motor performance and body weight were measured throughout the study. Training sessions were given on days 21 and 22 to acclimate the mice to the rotarod apparatus (Columbus Instruments, Columbus, Ohio). Motor performance (constant rotation at 16 rpm) was assessed weekly from 23-63 days of age and twice weekly from 63 days of age in the sodium butyrate-treated, PBS-treated R6/2 mice, and wild type littermate control mice. Three 60 sec trials were given during each session and averaged. Body weights were recorded twice weekly at the same time of day in all groups.

Drosophila model of HD = Drosophila model of HD (Steffan 2001); cited from earlier work
[2] = tested on: huntingtin-positive aggregates; assay: Huntingtin aggregate stereology and ubiquitin inclusions in neostriatum; format: in vivo, mouse; details: 1.2 g/kg/d i.p. from 21 days; at 90 days; vs PBS-treated R6/2
Method: Neuropathological Evaluation of Sodium Butyrate Treatment: Beginning at 21 days, R6/2 transgenic mice and wild-type littermate control mice were treated daily with the most optimal dose of sodium butyrate (1.2 g/kg), as determined by survival studies, or PBS intraperitoneal injections. Groups of 10 animals from each treatment paradigm were deeply anesthetized and transcardially perfused with 4% buffered paraformaldehyde at 90 days of age. Forty mice were used for neuropathological analysis, as previously described (Ferrante et al., 2002). […]
Stereology/Quantitation: Serial-cut coronal tissue-sections beginning from the most rostral segment of the neostriatum to the level of the anterior commissure (Inter aural 5.34 mm/Bregma 1.54 mm to Inter aural 3.7 mm/Bregma −0.10 mm), were used for huntingtin aggregate analysis. […] Striatal neuron areas were analyzed by microscopic videocapture using a Windows-based image analysis system for area measurement (Optimas, Bioscan Incorporated, Edmonds, Wash.). […] Cross-sectional areas were analyzed using Statview.

[3] = tested on: mRNA expression in R6/2 striatum and cortex; assay: Microarray gene expression analysis (U74Av2) of striatum and cortex; format: in vivo, mouse; set-up: key to Array, NaBu Txd R6/2 vs R6/2: I = increased; D = decreased; NC = no change
Method: Microarray Gene Expression Analysis: Beginning at six weeks of age, four mice were treated for 2 weeks with daily intraperitoneal injections (1.2 g/kg) of sodium butyrate. Mice were euthanized within 60 minutes of the last injection and cortical and striatal brain tissues were dissected separately and snap frozen on dry ice. In parallel, samples from four untreated R6/2 and four wild-type mice were collected in the same manner. One microarray sample was prepared from 10 Êg of total RNA from each tissue and hybridized to one U74Av2 array (Affymetrix). Four independent pair-wise comparisons were performed using MAS 5.0 software (Affymetrix) to evaluate gene expression changes between sodium butyrate-treated R6/2 and untreated R6/2 animals and between untreated R6/2 and untreated wild-type animals. Difference calls were scored, and only mRNAs that received difference calls in the same direction (increased or decreased) in at least 3 of the 4 pair-wise comparisons were included for presentation in the present study.

[4] = Angiomotin like 2 mRNA, AI854404, 160131_at, Cortex, treated vs untreated R6/2
[5] = Arginine vasopressin mRNA, M88354, 93381_at, Cortex, treated vs untreated R6/2
[6] = DNAJ/Heat shock protein 40 mRNA, AB028272, 96254_at, Striatum, treated vs untreated R6/2
[7] = Dynamin mRNA, L31397, 103031_g_at, Cortex, treated vs untreated R6/2
[8] = Erythroid differentiation regulator mRNA, AJ007909, 98525_f_at, Striatum, treated vs untreated R6/2
[9] = Hemoglobin, alpha adult chain 1 mRNA, V00714, 94781_at, Striatum + Cortex, treated vs untreated R6/2
[10] = Hemoglobin, beta 1 mRNA, V00722, 103534_at, Cortex, treated vs untreated R6/2
[11] = Hemoglobin, beta adult major chain mRNA, J00413, 101869_s_at, Striatum + Cortex, treated vs untreated R6/2
[12] = Heterogeneous nuclear ribonucleoprotein A1 mRNA, AI183202, 92724_at, Striatum, treated vs untreated R6/2
[13] = MAP kinase phosphatase-1 (MKP-1) mRNA, X61940, 104598_at, Striatum + Cortex, 1.2 g/kg i.p. 2 weeks vs untreated R6/2
[14] = MAP kinase phosphatase-3 (MKP-3) mRNA, AI845584, 93285_at, Cortex, treated vs untreated R6/2
[15] = Microtubule-associated protein tau mRNA, M18775, 102431_at, Cortex, treated vs untreated R6/2
[16] = Protein phosphatase 1B, beta isoform mRNA, D45859, 101836_at, Striatum, treated vs untreated R6/2
[17] = Transthyretin mRNA, D00073, 95350_at, Striatum, treated vs untreated R6/2
[18] = Unknown mRNA, AA711516, 96302_at, Striatum, treated vs untreated R6/2
[19] = Unknown mRNA, AI153421, 96215_f_at, Striatum, treated vs untreated R6/2
[20] = Unknown mRNA, AI451558, 97161_at, Striatum, treated vs untreated R6/2
[21] = Unknown mRNA, AV330064, 161114_i_at, Cortex, treated vs untreated R6/2
[22] = Unknown mRNA, C79248, 94689_at, Striatum + Cortex, treated vs untreated R6/2
[23] = c-fos oncogene mRNA, V00727, 160901_at, Cortex, treated vs untreated R6/2

CCCC(=O)[O-].[Na+] [sodium butyrate]
brain weight loss ([1]; 1.2 g/kg/d i.p. from 21 days, vs wild type littermates (unsupplemented R6/2: 18.9%)): 5.6% | striatal neuron area ([1]; 1.2 g/kg/d i.p., Wt 138.9, PBS-treated R6/2 57.1, p<0.01 vs PBS): 113.5 ± 14.2 _m2 | reduction of striatal neuron atrophy ([1]; 1.2 g/kg/d i.p., vs PBS-treated R6/2): one fold | gross brain atrophy, ventricular hypertrophy ([1]; 1.2 g/kg/d i.p., vs PBS-treated/untreated R6/2): reduced gross brain atrophy and ventricular enlargement; also recorded: ameliorated these gross neuropathological sequelae | body weight plateau until death (Body weight in R6/2 mice): 19-20 gms | photoreceptor neuron degeneration and lethality (Drosophila model of HD): slow photoreceptor neuron degeneration and ameliorate lethality | huntingtin-positive striatal aggregates or ubiquitin-positive inclusions [2]: no significant differences; also recorded: no significant reduction | % Change calls [3, 4]: 100% | Direction of change [3, 4]: Increase | % Change calls [3, 5]: 75% | Direction of change [3, 5]: Increase | % Change calls [3, 6]: 75% | Direction of change [3, 6]: Increase | % Change calls [3, 7]: 75% | Direction of change [3, 7]: Decrease | % Change calls [3, 8]: 100% | Direction of change [3, 8]: Decrease | % Change calls [3, 9]: 100% | Direction of change [3, 9]: Increase | % Change calls [3, 10]: 75% | Direction of change [3, 10]: Increase | % Change calls [3, 11]: 100% | Direction of change [3, 11]: Increase | % Change calls [3, 12]: 75% | Direction of change [3, 12]: Decrease | % Change calls [3, 13]: 100% | Direction of change [3, 13]: Increase | % Change calls [3, 14]: 75% | Direction of change [3, 14]: Increase | Array, NaBu Txd R6/2 vs R6/2 ([3]; MKP-1 mRNA, Cortex): I | Array, NaBu Txd R6/2 vs R6/2 ([3]; MKP-1 mRNA, Striatum): I | % Change calls [3, 15]: 75% | Direction of change [3, 15]: Decrease | Array, NaBu Txd R6/2 vs R6/2 ([3]; Preproenkephalin mRNA, Striatum): NC | % Change calls [3, 16]: 75% | Direction of change [3, 16]: Increase | % Change calls [3, 17]: 75% | Direction of change [3, 17]: Decrease | % Change calls [3, 18]: 75% | Direction of change [3, 18]: Decrease | % Change calls [3, 19]: 75% | Direction of change [3, 19]: Decrease | % Change calls [3, 20]: 75% | Direction of change [3, 20]: Decrease | % Change calls [3, 21]: 75% | Direction of change [3, 21]: Decrease | % Change calls [3, 22]: 75% | Direction of change [3, 22]: Decrease | % Change calls [3, 23]: 100% | Direction of change [3, 23]: Increase | number of mRNA changes ([3]; treated R6/2 vs untreated R6/2, striatum and cortex, 1.2 g/kg i.p. 2 weeks): 20 | Array, NaBu Txd R6/2 vs R6/2 ([3]; α-globin mRNA, Cortex): I | Array, NaBu Txd R6/2 vs R6/2 ([3]; α-globin mRNA, Striatum): I | Array, NaBu Txd R6/2 vs R6/2 ([3]; β-globin mRNA, Cortex): I | Array, NaBu Txd R6/2 vs R6/2 ([3]; β-globin mRNA, Striatum): I
